Data taken from patent US10081624B2, “Heterocyclic compound” (Takeda Pharmaceutical Company Limited, priority 2014, dated 2018).
“Also recorded” adds a separate entry of the source.

System: acetylated tubulin
Test: Measurement of acetylated tubulin in spleen after oral administration (Western blotting)
Assay type: in vivo
Conditions: BALE/c mice, female, 30 mg/kg orally
Procedure: Compound A (compound of Example 36) and compound B (compound of Example 37) were each orally administered to BALE/c mice (female, Charles River Japan, 8-weeks old when used) at a dose of 30 mg/kg. Compound A and compound B were each suspended in 0.5% methyl cellulose solution, and the suspensions were each orally administered at a dose of 10 mL/kg. For control group, 0.5% methyl cellulose solution was administered. After administration, a part (about 30 mg) of the spleen was recovered into tube containing beads (Lysing Matrix I, Cat. 6918-100, MP Biomedicals), and cryopreserved at −80° C. until used.
0.5 mL RIPA buffer containing protease inhibitor (Cat. 25955-11, Nacalai tesque) was added to the spleen placed in Lysing Matrix I tube, and the spleen was crushed over 20 sec by FastPrep-24. The sample tube was centrifuged (15,000 rpm, 4° C.,) for 5 min, and the supernatant was transferred to another tube. […] The protein amount of the sample was measured using BCA protein assay kit (Cat. 23227, Pierce). […]
The membrane was immersed in blocking reagent (Cat. NYPBR01, TOYOBO) at room temperature for 1 hr, washed, and reacted with primary antibody overnight at 4° C. After washed, the membrane was reacted with secondary antibody at room temperature for 1 hr, and immersed in ECL prime detecting solution (Cat. RPN2232, GE), and the chemiluminescence was detected by luminoimage analyzer LAS3000. […]

SMILES | acetylation of tubulin in spleen (protein expression level of acetylated tubulin, fold increase relative to 0.5% methyl cellulose solution administration group)
O=C(NC[C@H]1COCCN1C(=O)c1ccccc1)c1ccc(-c2noc(C(F)(F)F)n2)cc1 [compound A, N-(((3S)-4-benzoylmorpholin-3-yl)methyl)-4-(5-(trifluoromethyl)-1,2,4-oxadiazol-3-yl)benzamide] | increase in acetylated tubulin; also recorded: increased most acetylation of tubulin in spleen 8 hr after administration
O=C(NC[C@H]1COCCN1C(=O)c1cc(Cl)cc(Cl)c1)c1ccc(-c2noc(C(F)(F)F)n2)cc1 [compound B, N-(((3S)-4-(3,5-dichlorobenzoyl)morpholin-3-yl)methyl)-4-(5-(trifluoromethyl)-1,2,4-oxadiazol-3-yl)benzamide] | increase in acetylated tubulin; also recorded: increased most acetylation of tubulin in spleen 8 hr after administration
